Data reported in patent US20240060113A1, “PRESERVATION OF FETAL NUCLEIC ACIDS IN MATERNAL PLASMA” (STRECK LLC, priority 2009, published 2024).

Test system: non-human (lambda) DNA
Assay: Lambda DNA spiked into plasma, stored at room temperature, Quantitative PCR (Example 2, FIG. 3)
Details: plasma stored at room temperature 0 to 14 days
Procedure: Blood samples from the same donor are drawn into two different types of blood collection tubes. One tube contains 500 g/L IDU, 81 g/L Tripotassium EDTA and 47 g/L glycine. The other tube contains only Heparin. All samples are centrifuged at 2100 g for 30 minutes at room temperature to separate the plasma. The plasma is then transferred to new tubes and non-human (lambda) DNA is then spiked into the plasma tubes. The spiked samples are then stored at room temperature for 0, 1, 2, 3, 4, 7, 11, and 14 days. Free circulating DNA is purified using the QIAamp® DNA Blood Mini Kit available from QIAGEN Inc. (Valencia, CA). DNA is extracted from each plasma sample. The samples are then amplified by Quantitative PCR (using iQ SYBR Green Supermix reagents available from BIO-RAD Laboratories (Hercules, California)) to identify the amount of lambda DNA present. […] The expected results of this example are shown in graphic format at FIG. 3. This example confirms that the compositions of the present invention are able to maintain the integrity and amount of DNA present in a blood sample.

Heparin
relative percentage of lambda DNA present: decreases at every consecutive measurement
